Data from ChEMBL document CHEMBL1641539 (Bioorg Med Chem Lett, 2011).

Key:
[1] = molecular target: Mitogen-activated protein kinase 14 (Homo sapiens, UniProt Q16539); assay: Inhibition of human SAPK2a at 10 uM after 60 mins by TR-FRET assay; settings: values are per cent of control
[2] = molecular target: Protein kinase C beta type (Homo sapiens) (UniProt P05771); assay: Inhibition of human PKCbeta1 at 10 uM after 60 mins by TR-FRET assay; values are per cent of control
[3] = molecular target: Platelet-derived growth factor receptor beta (Homo sapiens) (UniProt P09619); assay: Inhibition of human PDGFRbeta at 10 uM after 60 mins by TR-FRET assay; values are per cent of control
[4] = molecular target: Angiopoietin-1 receptor (Homo sapiens) (UniProt Q02763); assay: Inhibition of human Tie2 at 10 uM after 60 mins by TR-FRET assay; values are per cent of control
[5] = molecular target: Tyrosine-protein kinase CSK (Homo sapiens) (UniProt P41240); assay: Inhibition of human CSK at 10 uM after 60 mins by TR-FRET assay; values are per cent of control
[6] = molecular target: Cyclin-dependent kinase 2/cyclin E (Homo sapiens) (UniProt P24864+P24941+O96020); assay: Inhibition of human CDK2/cyclinE at 10 uM after 60 mins by TR-FRET assay; values are per cent of control
[7] = molecular target: Tyrosine-protein kinase ABL1 (Mus musculus) (UniProt P00520); assay: Inhibition of mouse Abl at 10 uM after 60 mins by TR-FRET assay; values are per cent of control
[8] = molecular target: Ephrin type-A receptor 7 (Homo sapiens) (UniProt Q15375); assay: Inhibition of human EphA7 at 10 uM after 60 mins by TR-FRET assay; values are per cent of control
[9] = molecular target: Dual specificity mitogen-activated protein kinase kinase 6 (Homo sapiens) (UniProt P52564); assay: Inhibition of human MKK6 at 10 uM after 60 mins by TR-FRET assay; values are per cent of control
[10] = molecular target: G protein-coupled receptor kinase 5 (Homo sapiens) (UniProt P34947); assay: Inhibition of human GRK5 at 10 uM after 60 mins by TR-FRET assay; values are per cent of control
[11] = molecular target: Calcium/calmodulin-dependent protein kinase type 1 (Homo sapiens) (UniProt Q14012); assay: Inhibition of human CaMK1 at 10 uM after 60 mins by TR-FRET assay; values are per cent of control
[12] = molecular target: RAC-gamma serine/threonine-protein kinase (Homo sapiens) (UniProt Q9Y243); assay: Inhibition of human PKBgamma at 10 uM after 60 mins by TR-FRET assay; values are per cent of control
[13] = molecular target: Ephrin type-B receptor 2 (Homo sapiens) (UniProt P29323); assay: Inhibition of human EphB2 at 10 uM after 60 mins by TR-FRET assay; settings: values are per cent of control
[14] = molecular target: Serine/threonine-protein kinase pim-2 (Homo sapiens) (UniProt Q9P1W9); assay: Inhibition of human Pim-2 at 10 uM after 60 mins by TR-FRET assay; values are per cent of control
[15] = molecular target: Interleukin-1 receptor-associated kinase 4 (Homo sapiens) (UniProt Q9NWZ3); assay: Inhibition of human IRAK4 at 10 uM after 60 mins by TR-FRET assay; settings: values are per cent of control
[16] = molecular target: Fibroblast growth factor receptor 1 (Homo sapiens) (UniProt P11362); assay: Inhibition of human FGFR1 at 10 uM after 60 mins by TR-FRET assay; values are per cent of control
[17] = molecular target: Tyrosine-protein kinase ABL2 (Homo sapiens) (UniProt P42684); assay: Inhibition of human Arg at 10 uM after 60 mins by TR-FRET assay; values are per cent of control
[18] = molecular target: Rho-associated protein kinase 2 (Rattus norvegicus) (UniProt Q62868); assay: Inhibition of rat ROCK-2 at 10 uM after 60 mins by TR-FRET assay; values are per cent of control
[19] = molecular target: 3-phosphoinositide-dependent protein kinase 1 (Homo sapiens) (UniProt O15530); assay: Inhibition of human PDK1 at 10 uM after 60 mins by TR-FRET assay; values are per cent of control
[20] = molecular target: Casein kinase I isoform delta (Homo sapiens) (UniProt P48730); assay: Inhibition of human CK1d at 10 uM after 60 mins by TR-FRET assay; values are per cent of control
[21] = molecular target: Rho-associated protein kinase 2 (Homo sapiens) (UniProt O75116); assay: Inhibition of human ROCK-2 at 10 uM after 60 mins by TR-FRET assay; values are per cent of control
[22] = molecular target: Protein kinase C gamma type (Homo sapiens) (UniProt P05129); assay: Inhibition of human PKCgamma at 10 uM after 60 mins by TR-FRET assay; values are per cent of control
[23] = molecular target: Serine/threonine-protein kinase D1 (Homo sapiens) (UniProt Q15139); assay: Inhibition of human PKCmu at 10 uM after 60 mins by TR-FRET assay; values are per cent of control
[24] = molecular target: Protein kinase C beta type (Homo sapiens) (UniProt P05771); assay: Inhibition of human PKCbeta2 at 10 uM after 60 mins by TR-FRET assay; values are per cent of control
[25] = molecular target: Calcium/calmodulin-dependent protein kinase type II subunit beta (Homo sapiens) (UniProt Q13554); assay: Inhibition of human CaMK2beta at 10 uM after 60 mins by TR-FRET assay; values are per cent of control
[26] = molecular target: Receptor tyrosine-protein kinase erbB-4 (Homo sapiens) (UniProt Q15303); assay: Inhibition of human ErbB4 at 10 uM after 60 mins by TR-FRET assay; settings: values are per cent of control
[27] = molecular target: Serine/threonine-protein kinase PLK3 (Homo sapiens) (UniProt Q9H4B4); assay: Inhibition of human Plk3 at 10 uM after 60 mins by TR-FRET assay; values are per cent of control
[28] = molecular target: Protein kinase C delta type (Homo sapiens) (UniProt Q05655); assay: Inhibition of human PKCdelta at 10 uM after 60 mins by TR-FRET assay; values are per cent of control
Chain of Protein kinase C delta type (Homo sapiens) (Q05655 whole entry, looked up): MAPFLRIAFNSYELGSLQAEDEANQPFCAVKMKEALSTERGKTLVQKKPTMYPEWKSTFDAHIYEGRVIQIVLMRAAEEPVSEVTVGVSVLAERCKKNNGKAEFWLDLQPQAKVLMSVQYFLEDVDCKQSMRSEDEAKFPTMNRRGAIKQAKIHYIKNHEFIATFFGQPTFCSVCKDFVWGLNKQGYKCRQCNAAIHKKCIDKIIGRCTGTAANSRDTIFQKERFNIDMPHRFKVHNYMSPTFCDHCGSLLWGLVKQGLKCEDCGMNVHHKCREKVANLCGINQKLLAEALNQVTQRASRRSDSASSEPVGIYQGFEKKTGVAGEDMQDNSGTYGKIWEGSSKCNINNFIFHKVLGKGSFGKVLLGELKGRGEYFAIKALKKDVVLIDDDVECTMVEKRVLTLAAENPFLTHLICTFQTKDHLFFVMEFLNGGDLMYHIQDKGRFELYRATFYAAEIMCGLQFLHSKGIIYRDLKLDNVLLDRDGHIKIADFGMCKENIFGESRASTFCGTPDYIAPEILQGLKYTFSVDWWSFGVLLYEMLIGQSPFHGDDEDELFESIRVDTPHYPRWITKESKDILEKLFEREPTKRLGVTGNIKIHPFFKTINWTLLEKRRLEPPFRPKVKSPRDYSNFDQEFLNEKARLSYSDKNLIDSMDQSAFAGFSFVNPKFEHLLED

Chain of Protein kinase C beta type (Homo sapiens) (P05771 2-671 limits assumed): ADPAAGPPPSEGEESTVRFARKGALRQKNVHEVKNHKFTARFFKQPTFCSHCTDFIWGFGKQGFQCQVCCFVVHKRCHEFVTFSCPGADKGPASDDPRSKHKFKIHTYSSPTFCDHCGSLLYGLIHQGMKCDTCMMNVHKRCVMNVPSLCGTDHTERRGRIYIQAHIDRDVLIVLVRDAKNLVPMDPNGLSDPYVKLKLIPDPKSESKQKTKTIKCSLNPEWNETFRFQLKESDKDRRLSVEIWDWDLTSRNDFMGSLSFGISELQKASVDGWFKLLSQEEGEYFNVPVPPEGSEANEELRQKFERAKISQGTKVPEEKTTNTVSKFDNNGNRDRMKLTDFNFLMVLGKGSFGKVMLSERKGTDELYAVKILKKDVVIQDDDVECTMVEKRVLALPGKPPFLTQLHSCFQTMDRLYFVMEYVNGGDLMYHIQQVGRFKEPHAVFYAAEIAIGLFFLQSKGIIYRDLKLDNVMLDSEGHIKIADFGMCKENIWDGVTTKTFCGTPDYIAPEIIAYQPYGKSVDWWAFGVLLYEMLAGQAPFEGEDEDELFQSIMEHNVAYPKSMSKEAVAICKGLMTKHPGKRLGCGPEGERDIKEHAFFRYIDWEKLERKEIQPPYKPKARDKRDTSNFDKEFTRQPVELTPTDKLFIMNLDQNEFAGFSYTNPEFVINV
Chain of Tyrosine-protein kinase ABL1 (Mus musculus) (P00520 whole entry): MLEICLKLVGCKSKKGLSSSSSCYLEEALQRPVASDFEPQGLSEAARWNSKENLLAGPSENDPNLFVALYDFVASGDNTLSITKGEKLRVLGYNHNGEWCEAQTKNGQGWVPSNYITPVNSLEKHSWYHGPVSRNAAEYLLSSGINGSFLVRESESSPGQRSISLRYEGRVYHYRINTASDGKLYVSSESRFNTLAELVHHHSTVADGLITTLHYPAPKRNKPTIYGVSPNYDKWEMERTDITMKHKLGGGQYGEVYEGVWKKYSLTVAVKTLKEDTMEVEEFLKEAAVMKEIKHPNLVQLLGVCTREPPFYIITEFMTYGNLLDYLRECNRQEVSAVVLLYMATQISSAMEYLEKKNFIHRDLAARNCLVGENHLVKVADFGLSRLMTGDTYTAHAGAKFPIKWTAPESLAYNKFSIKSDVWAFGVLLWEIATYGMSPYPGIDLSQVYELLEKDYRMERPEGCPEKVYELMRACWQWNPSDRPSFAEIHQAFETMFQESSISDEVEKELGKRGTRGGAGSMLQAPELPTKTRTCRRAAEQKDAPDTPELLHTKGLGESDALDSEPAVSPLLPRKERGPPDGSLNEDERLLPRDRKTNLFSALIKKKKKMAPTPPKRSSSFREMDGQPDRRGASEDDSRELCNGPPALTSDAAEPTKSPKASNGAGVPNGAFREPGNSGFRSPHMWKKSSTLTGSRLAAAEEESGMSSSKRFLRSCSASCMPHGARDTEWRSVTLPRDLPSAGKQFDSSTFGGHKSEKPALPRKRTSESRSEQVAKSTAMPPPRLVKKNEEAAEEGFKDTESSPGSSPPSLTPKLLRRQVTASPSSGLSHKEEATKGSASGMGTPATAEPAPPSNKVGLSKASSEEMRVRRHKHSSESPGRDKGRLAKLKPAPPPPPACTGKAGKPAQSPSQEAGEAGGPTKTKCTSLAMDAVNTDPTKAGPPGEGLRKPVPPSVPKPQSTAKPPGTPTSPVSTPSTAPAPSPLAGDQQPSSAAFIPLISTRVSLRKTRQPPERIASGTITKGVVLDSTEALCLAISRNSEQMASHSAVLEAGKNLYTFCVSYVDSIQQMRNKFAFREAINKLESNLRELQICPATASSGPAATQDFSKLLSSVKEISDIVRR
Chain of Calcium/calmodulin-dependent protein kinase type 1 (Homo sapiens) (Q14012 whole entry, looked up): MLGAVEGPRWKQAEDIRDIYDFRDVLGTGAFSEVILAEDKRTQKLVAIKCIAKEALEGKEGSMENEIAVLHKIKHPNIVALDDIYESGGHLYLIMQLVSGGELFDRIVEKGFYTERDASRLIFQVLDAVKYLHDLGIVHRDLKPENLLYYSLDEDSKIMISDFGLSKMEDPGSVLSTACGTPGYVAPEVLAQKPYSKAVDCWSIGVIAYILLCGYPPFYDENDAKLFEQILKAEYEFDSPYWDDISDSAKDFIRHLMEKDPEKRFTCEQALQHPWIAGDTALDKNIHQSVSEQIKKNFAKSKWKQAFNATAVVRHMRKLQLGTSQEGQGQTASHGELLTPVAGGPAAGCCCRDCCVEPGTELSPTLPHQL
Chain of Serine/threonine-protein kinase PLK3 (Homo sapiens) (Q9H4B4 whole entry, looked up): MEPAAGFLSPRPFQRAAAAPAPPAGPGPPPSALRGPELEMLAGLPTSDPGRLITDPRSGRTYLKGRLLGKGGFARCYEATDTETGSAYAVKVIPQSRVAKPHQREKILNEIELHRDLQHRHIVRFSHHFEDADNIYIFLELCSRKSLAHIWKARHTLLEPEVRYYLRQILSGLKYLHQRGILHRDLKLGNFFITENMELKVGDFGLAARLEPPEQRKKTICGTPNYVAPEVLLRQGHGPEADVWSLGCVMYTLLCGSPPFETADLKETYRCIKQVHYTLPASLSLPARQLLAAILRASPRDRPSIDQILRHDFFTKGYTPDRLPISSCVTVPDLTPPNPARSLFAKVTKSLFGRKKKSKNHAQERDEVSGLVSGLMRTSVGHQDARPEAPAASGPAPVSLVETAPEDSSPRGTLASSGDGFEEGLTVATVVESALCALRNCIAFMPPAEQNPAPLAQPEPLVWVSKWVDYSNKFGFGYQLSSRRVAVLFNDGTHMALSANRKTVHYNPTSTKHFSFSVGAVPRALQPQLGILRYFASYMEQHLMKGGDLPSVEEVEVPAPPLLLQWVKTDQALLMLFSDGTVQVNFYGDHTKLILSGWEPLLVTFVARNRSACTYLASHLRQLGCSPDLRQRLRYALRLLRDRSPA
Chain of Tyrosine-protein kinase CSK (Homo sapiens) (P41240 2-450 limits assumed): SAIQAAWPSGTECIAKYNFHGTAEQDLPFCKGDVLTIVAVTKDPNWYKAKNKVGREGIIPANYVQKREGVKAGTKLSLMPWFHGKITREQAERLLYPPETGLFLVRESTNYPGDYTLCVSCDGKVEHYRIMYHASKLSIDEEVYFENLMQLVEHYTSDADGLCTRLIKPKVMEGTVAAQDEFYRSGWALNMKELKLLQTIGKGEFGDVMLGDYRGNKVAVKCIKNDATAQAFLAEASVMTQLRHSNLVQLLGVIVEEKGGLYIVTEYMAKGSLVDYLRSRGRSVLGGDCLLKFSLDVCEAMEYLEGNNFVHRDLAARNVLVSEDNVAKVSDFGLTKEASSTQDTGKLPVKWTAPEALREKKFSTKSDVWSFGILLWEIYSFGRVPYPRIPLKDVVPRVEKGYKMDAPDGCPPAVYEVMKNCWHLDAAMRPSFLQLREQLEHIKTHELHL
Chain of Ephrin type-A receptor 7 (Homo sapiens) (Q15375 28-998 limits assumed): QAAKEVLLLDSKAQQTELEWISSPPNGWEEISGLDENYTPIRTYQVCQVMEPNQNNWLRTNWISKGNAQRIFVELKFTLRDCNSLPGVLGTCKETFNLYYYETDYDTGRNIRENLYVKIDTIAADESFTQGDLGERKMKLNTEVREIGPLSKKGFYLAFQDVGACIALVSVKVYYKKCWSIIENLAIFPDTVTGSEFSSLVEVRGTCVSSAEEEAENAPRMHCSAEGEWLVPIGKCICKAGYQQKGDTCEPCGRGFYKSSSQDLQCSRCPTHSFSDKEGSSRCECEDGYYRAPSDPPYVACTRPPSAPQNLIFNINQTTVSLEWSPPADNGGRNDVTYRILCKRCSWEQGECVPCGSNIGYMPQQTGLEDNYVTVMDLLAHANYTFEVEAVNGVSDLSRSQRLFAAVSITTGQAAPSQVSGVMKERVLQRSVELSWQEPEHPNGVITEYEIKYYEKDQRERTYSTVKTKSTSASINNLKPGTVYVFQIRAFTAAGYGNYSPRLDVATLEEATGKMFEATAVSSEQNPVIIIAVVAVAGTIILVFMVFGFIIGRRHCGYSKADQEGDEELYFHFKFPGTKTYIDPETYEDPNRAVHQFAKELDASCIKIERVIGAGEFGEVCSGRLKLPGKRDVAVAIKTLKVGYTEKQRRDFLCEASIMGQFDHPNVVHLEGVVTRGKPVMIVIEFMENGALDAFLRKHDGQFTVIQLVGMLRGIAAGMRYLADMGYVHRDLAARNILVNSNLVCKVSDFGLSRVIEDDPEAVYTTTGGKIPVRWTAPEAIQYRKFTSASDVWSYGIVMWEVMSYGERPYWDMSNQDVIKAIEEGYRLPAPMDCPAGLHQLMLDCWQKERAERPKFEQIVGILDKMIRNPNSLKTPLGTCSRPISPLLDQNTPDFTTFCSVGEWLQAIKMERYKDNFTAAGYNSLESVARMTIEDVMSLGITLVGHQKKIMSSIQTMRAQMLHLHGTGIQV

`S=c1[nH]nc(-c2ccncc2)n1-c1ccc2ccccc2c1` showed a residual activity [1] of 71%, a residual activity [2] of 109% and a residual activity [3] of 99%. For the same compound, the residual activity [4] was 103%, the residual activity [5] was 100% and the residual activity [6] was 108%. For the same compound, the residual activity [7] was 94%, the residual activity [8] was 65% and the residual activity [9] was 85%. The residual activity [10] was 115%, the residual activity [11] was 105% and the residual activity [12] was 110%. For the same compound, the residual activity [13] was 105%, the residual activity [14] was 111% and the residual activity [15] was 114%. For the same compound, the residual activity [16] was 98%, the residual activity [17] was 109% and the residual activity [18] was 101%. For the same compound, the residual activity [19] was 108%, the residual activity [20] was 96% and the residual activity [21] was 101%. The residual activity [22] was 102%, the residual activity [23] was 104% and the residual activity [24] was 105%. For the same compound, the residual activity [25] was 113%, the residual activity [26] was 99% and the residual activity [27] was 106%. It also gave a residual activity [28] of 111%.
